Values quoted from earlier work in patent publication EP1165099B1, “ANGIOTENSIN II AND ANALOGS THEREOF FOR LIMITING SCAR AND ADHESION FORMATION” (UNIVERSITY OF SOUTHERN CALIFORNIA, priority 1999, dated 2006).

Test system: AT2 receptor

| affinity for AT2 than AT1 (ratio of affinity AT2 over AT1) | Substance | binding characteristics (experimental models of the cited literature) |
| --- | --- | --- |
| 100 times | Asp-Arg-Val-Tyr-Ile-His-Pro-Phe [AII] |  |
|  | Asp-Arg-Val-Tyr-Ile-Xaa-Pro-Phe [(p-NH2-Phe)6-AII] | comparable to AT2 antagonists |
